For data set [1], the target named is T1, JAK2 (Homo sapiens, UniProt O60674).
T1 construct: purchased Carna Biosciences
As to the kind of experiment: JAK2 kinase activity, microfluidic assay (Caliper EZ Reader II). The class given is biochemical. The conditions noted are these: JAK2 0.125 nM, 1 mM ATP. On the procedure:
(§1) Testing for JAK1, JAK2 and TYK2 Kinase Activities
(§2) JAK activity was determined in the reaction buffer 50 mM HEPES, 0.01% Brij35, 10 mM MgCl2, 2 mM DTT by a microfluidic assay. The phosphorylation of a FAM labeled peptide substrate was monitored in the Caliper EZ Reader II (Perkin Elmer). The assay condition for each batch of enzyme (Carna Biosciences) was optimized to obtain 10% conversion rate of peptide substrate.
(§3) The test compounds were dissolved in DMSO to a stock concentration of 10 mM. Three-fold serially diluted compounds with top concentration of 5 μM were pre-incubated with JAK1, JAK2 or TYK2 for 10 min at ambient temperature. The final DMSO concentration of assay mixture was 1%. […] The reaction was stopped by adding 50 mM EDTA.
(§4) The percent inhibition was calculated by the following formula:
(§5) [formula] • wherein • Conversion %_max=the conversion rate in the positive well without addition of compound • Conversion %_sample=the conversion rate of test compounds • Conversion %_min=the conversion rate in the well without addition of enzyme
(§6) The dose-response (percent inhibition) curve was plotted and IC50 values were determined by GraphPad software.

The target in data set [2] is T2, JAK1 (Homo sapiens, UniProt P23458).
T2 construct: purchased Carna Biosciences
As to the kind of experiment: JAK1 kinase activity, microfluidic assay (Caliper EZ Reader II). The class given is biochemical. Particulars: JAK1 5 nM, 1 mM ATP. On the procedure:
as §1, §2, §3, §4, §5, §6

Data set [3] has as its target T3, Ba/F3-TEL-TYK2 cells (Homo sapiens, UniProt P29597).
T3 construct: fused on or other part: Dimerization domain of TEL (ETV6) fused to the TYK2 kinase domain; P41212 (Transcription factor ETV6)
In words: Anti-proliferative assay, Ba/F3-TEL-TYK2 cells (Cell-Titer Glo). The conditions noted are these: 72 h, read-out: BaF3-TEL-TYK2 IC50. The class given is cell-based. As to the method: Anti-Proliferative Assay Dimerization domain of Tel protein fused with JAK kinase domain was permanently transduced into Ba/F3 cells, whose proliferation is dependent on JAK activity in the absence of IL-3 induction. These engineered Ba/F3 cells (Ba/F3-FL-TYK2-[…], Ba/F3-TEL-TYK2 and Ba/F3-TEL-JAK2) were used to monitor JAK inhibitory activities of the compounds in the cellular. […] Cells were seeded at 2000/well of white flat bottom 96-well plates. The well containing medium only was used as background control. After 24 h growth, cells were treated with compounds. The test compounds were dissolved in DMSO to a stock concentration of 20 mM. 3-fold serially diluted compounds for 9 concentrations with top concentration of 20 μM was added into the each well. […] The cells continued to grow at 37° C. in 5% CO2 for 72 h after compound treatment. The viability was measured by cellular ATP determination using the Cell-Titer Glo luciferase reagent (Promega). The Luminescence value was recorded by a multi-label reader Envision (PerkinElmer).

Data set [4] has as its target T4, Ba/F3-FL-TYK2-P760L cells (Homo sapiens, UniProt P29597, P760L, cells depend on it).
T4 construct: BaF3-FL-T2P760L (nM)
As to the kind of experiment: Anti-proliferative assay, Ba/F3-FL-TYK2-P760L cells (Cell-Titer Glo). The class given is cell-based. The conditions noted are these: 72 h, read-out: BaF3-FL-T2P760L IC50. The method in brief: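 Compound exposure ran 72 h at 37 °C in 5% CO2 across nine 3-fold concentrations from a 20 μM top dose, added 24 h after seeding 2000 cells/well.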

Data set [5] is described as follows: Microsomal metabolic stability assay. Particulars: pH 7.4, 0.5 mg/mL protein, 1 μM compound. The class given is in vitro ADME. The method in brief: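 Parent loss was tracked by LC/MS/MS at 0, 5, 15, 30 and 45 min, with half-life derived from the ln(% remaining)–time slope. Incubation at 37 °C, pH 7.4 phosphate/EDTA buffer: 0.5 mg/mL microsomes, 1 μM compound, NADPH-regenerated (2 mM).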

The target in data set [6] is T5, TYK2 (Homo sapiens, UniProt P29597).
T5 construct: purchased Carna Biosciences
As to the kind of experiment: TYK2 kinase activity, microfluidic assay (Caliper EZ Reader II). The class given is biochemical. Particulars: TYK2 1 nM, 1 mM ATP. As to the method: as §1, §2, §3, §4, §5, §6

The target of data set [7] is T6, TYK2-JH2 domain (Homo sapiens, UniProt P29597).
T6 construct: IC50 on JH2 domain activity (nM)
As to the kind of experiment: Binding activity test for JH2 domain of TYK2 (Tb-antibody/tracer FRET). The procedure, abridged:
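FRET read-out after 60 min at 25° C plus overnight at 4° C; tracer displacement detected via Tb-labelled antibody on the JH2 domain. Dose-response used 11 points at 3-fold dilution.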

Data set [8] in a line: Kinetic solubility. The class given is physicochemical. Particulars: phosphate buffer, aqueous buffer, kinetic from dmso stock, PBS (pH 7.4), 1% DMSO, room temperature. As to the method: Aliquots of 8 μL of reference and test compound stock solutions (10 mM/5 mM) are added into 792 μL of 100 mM pH 7.4 phosphate buffer. The final DMSO concentration is 1%. Sample tubes are shaken for 2 hours at 1000 rpm at room temperature. Samples are centrifuged at 12000 rpm for 10 min to precipitate un-dissolved particles. And transfer the supernatants to a new tube or plate. Add 5 μL of samples (no diluted, 10 times diluted and 100 times diluted) and standard curve samples to 95 μL of ACN containing IS for LC-MS/MS analysis.

[9] abbreviates: dog liver microsomes, read-out: Dog LM Clint.
Where [10] appears, read: dog liver microsomes, read-out: Dog LM T½.
Setting [11] is: human liver microsomes, read-out: Human LM Clint.
Setting [12] is: human liver microsomes, read-out: Human LM T½.
Where [13] appears, read: rat liver microsomes, read-out: Rat LM Clint.
The mark [14] stands for this setting: rat liver microsomes, read-out: Rat LM T½.

What is called IC50 is the concentration that inhibits the measured activity by half. The low end stands for higher potency, the high end for lower potency. In general, solubility refers to the dissolved amount per volume that the medium holds.

In brackets after ≈: the same amount, converted by molar mass. Like-named read-outs stand apart in the source and are kept apart here. Bounds are passed on as bounds.

T2 sequence (P23458 whole entry): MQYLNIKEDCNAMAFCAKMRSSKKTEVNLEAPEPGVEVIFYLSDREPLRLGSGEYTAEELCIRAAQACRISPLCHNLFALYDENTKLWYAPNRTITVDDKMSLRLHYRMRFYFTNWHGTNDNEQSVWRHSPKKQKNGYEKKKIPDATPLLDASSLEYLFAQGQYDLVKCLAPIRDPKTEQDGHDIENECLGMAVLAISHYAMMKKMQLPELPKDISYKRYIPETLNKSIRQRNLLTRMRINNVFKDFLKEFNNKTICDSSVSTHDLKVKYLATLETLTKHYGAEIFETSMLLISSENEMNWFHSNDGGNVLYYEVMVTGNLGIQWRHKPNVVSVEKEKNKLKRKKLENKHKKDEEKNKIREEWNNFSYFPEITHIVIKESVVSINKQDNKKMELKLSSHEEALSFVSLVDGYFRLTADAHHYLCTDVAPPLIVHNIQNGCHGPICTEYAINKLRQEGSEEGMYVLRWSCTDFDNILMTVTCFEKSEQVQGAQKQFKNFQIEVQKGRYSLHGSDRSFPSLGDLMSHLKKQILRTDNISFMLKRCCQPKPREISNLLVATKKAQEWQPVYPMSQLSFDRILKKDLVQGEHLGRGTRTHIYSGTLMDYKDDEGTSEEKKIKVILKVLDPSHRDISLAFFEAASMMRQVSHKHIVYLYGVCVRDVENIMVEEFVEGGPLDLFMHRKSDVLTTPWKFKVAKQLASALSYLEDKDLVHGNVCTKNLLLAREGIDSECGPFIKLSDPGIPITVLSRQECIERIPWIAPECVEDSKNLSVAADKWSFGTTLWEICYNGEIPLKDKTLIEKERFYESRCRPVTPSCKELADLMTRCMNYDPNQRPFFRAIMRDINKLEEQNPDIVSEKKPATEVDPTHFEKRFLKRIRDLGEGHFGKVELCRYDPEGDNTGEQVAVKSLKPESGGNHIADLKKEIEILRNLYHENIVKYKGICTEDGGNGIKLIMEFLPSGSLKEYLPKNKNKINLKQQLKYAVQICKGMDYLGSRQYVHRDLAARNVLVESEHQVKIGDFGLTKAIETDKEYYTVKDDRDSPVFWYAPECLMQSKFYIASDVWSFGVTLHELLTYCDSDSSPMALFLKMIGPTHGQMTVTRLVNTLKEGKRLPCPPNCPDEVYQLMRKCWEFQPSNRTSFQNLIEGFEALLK
T3 sequence (P29597 whole entry, change not shown, the tested form may be a part): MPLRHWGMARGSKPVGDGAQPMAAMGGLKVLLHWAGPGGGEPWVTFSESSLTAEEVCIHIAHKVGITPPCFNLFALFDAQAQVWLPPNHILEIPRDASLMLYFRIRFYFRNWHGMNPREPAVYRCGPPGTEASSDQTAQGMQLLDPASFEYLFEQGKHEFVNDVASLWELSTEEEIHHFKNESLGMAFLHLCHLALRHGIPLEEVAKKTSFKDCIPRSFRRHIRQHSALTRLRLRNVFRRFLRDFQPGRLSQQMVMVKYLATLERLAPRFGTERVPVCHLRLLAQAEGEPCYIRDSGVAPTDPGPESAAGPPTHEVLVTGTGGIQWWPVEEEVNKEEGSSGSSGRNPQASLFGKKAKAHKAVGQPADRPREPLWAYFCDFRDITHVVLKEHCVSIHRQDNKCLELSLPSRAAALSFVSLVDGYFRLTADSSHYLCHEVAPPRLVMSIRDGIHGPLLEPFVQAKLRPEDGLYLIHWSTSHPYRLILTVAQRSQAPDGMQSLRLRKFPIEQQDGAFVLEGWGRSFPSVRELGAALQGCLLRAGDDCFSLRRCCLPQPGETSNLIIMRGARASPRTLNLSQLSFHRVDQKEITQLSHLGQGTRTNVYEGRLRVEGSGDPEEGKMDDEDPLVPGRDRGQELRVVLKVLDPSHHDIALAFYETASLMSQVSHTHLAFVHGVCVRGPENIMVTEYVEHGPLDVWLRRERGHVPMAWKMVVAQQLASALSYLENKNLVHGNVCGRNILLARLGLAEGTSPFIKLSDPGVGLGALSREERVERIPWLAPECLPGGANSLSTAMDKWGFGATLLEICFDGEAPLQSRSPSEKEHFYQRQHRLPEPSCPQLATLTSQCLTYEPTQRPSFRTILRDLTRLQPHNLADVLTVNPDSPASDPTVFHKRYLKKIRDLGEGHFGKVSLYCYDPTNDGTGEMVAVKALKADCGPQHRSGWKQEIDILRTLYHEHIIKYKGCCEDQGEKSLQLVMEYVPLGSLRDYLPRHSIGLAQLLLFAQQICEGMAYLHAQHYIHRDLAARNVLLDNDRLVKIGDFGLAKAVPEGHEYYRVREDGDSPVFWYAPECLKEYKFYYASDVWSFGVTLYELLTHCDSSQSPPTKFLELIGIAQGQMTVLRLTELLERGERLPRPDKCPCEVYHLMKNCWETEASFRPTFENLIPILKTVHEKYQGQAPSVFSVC
T5 sequence (P29597 whole entry): as the sequence (P29597 whole entry, change not shown, the tested form may be a part) above
T4 sequence (P29597 whole entry P760L): as the sequence (P29597 whole entry, change not shown, the tested form may be a part) above, with P760L counted along it
T1 sequence (O60674 whole entry): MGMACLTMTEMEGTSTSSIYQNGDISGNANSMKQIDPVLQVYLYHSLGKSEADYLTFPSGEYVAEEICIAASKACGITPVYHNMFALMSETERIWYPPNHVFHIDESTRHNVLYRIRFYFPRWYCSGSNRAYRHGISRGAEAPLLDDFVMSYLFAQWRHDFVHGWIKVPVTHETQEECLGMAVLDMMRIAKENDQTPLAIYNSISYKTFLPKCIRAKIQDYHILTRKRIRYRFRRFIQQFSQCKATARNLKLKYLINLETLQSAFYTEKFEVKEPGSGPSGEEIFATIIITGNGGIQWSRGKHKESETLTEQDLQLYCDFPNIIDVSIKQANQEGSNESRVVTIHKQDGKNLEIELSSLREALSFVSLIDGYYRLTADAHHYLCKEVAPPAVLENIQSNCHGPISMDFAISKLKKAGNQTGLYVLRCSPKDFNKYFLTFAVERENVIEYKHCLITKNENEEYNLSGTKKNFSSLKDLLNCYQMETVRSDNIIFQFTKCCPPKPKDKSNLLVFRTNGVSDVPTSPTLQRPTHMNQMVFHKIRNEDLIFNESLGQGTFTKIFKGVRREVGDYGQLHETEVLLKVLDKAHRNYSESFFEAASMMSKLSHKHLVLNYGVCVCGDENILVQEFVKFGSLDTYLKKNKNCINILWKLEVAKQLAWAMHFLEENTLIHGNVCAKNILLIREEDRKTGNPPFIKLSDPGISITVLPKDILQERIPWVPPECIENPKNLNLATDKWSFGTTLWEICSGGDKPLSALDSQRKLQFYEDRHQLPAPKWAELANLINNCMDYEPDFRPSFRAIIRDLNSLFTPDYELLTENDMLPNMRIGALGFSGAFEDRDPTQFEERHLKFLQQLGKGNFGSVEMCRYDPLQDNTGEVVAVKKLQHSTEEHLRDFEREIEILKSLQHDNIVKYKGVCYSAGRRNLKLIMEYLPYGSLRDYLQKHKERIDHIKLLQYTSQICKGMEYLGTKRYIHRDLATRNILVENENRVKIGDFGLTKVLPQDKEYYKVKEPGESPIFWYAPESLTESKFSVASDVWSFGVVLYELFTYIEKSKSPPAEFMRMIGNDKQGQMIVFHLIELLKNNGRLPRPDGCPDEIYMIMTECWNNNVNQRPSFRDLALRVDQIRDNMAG
T6 sequence (P29597 589-875 limits assumed): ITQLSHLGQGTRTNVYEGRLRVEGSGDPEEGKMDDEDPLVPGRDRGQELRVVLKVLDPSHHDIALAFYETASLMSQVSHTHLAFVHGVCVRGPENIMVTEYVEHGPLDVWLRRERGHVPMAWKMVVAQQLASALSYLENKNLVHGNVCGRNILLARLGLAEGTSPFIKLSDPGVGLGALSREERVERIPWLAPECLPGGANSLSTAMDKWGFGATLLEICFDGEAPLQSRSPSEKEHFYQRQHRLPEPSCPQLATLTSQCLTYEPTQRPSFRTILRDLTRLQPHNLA

Turning to `CCn1ccc2scc(Nc3cc(NC(=O)C4CC4)ncc3C(=O)NC)c2c1=O` [Example 17, 6-(Cyclopropanecarboxamido)-4-((5-ethyl-4-oxo-4,5-dihydrothieno[3,2-c]pyridin-3-yl)amino)-N-methylnicotinamide], the IC50 is above 5000 nM in data set [1], above 5000 nM in data set [2], above 5000 nM in data set [6] and 0.202 nM in data set [7]. Besides, the GI50 in data set [3] was above 10000 nM; in data set [4] it was 114 nM. In addition, the microsomal CLint at 1 μM in data set [5] (setting [9]) amounted to 47.1 µL/min/mg; in data set [5] (setting [11]), 128 µL/min/mg; in data set [5] (setting [13]), 209 µL/min/mg. In addition, the half-life at 1 μM in data set [5] (setting [10]) was 1.23 h; in data set [5] (setting [12]), 0.451 h; in data set [5] (setting [14]) it was 0.276 h.

Consider `[2H]C([2H])([2H])NC(=O)c1cnc(Nc2cccc(C#N)n2)nc1Nc1cccc(-c2ncn(C)n2)c1OC` [Example 21, 2-[(6-Cyano-2-pyridyl)amino]-4-[2-methoxy-3-(1-methyl-1,2,4-triazol-3-yl)anilino]-N-(trideuteriomethyl)pyrimidine-5-carboxamide], for which, in data set [4], the GI50 came out at 77.5 nM. Also, the figures for the microsomal CLint at 1 μM in data set [5] (setting [9]), in data set [5] (setting [11]) and in data set [5] (setting [13]) were 26.8 µL/min/mg, 6.42 µL/min/mg and 7.4 µL/min/mg, respectively. In addition, the half-life at 1 μM in data set [5] (setting [10]) was 0.861 h; in data set [5] (setting [12]), 3.6 h; in data set [5] (setting [14]), 3.12 h. Further, the concentration for half-maximal inhibition (IC50) in data set [6] was above 5000 nM.

As for `CNC(=O)c1cnc2nc1Nc1cc(cc(-c3ncn(C)n3)c1OC)CN(C)Cc1cccc(c1)N2` [Example 22, 10-Methoxy-N,15-dimethyl-11-(1-methyl-1,2,4-triazol-3-yl)-2,4,8,15,23-pentazatetracyclo[15.3.1.13,7.19,13]tricosa-1(21),3(23),4,6,9,11,13(22),17,19-nonaene-6-carboxamide], the IC50 in data set [1], in data set [2] and in data set [6] was above 5000 nM throughout. The GI50 in data set [4] amounted to 861 nM.

For `CCn1ccc2c(c(Nc3cc(NC(=O)C4CC4)nnc3C(=O)NC)cn2C)c1=O` [Example 23, 6-(Cyclopropanecarboxamido)-4-((5-ethyl-1-methyl-4-oxo-4,5-dihydro-1H-pyrrolo[3,2-c]pyridin-3-yl)amino)-N-methylpyridazine-3-carboxamide], the GI50 was above 20000 nM in data set [3] and 62.9 nM in data set [4]. The microsomal CLint at 1 μM in data set [5] (setting [9]) turned out to be 21.4 µL/min/mg; in data set [5] (setting [11]), 80 µL/min/mg; in data set [5] (setting [13]) it was 35.8 µL/min/mg. Further, the half-life at 1 μM stood at 1.08 h in data set [5] (setting [10]), 0.288 h in data set [5] (setting [12]) and 0.645 h in data set [5] (setting [14]). In data set [7], the IC50 stood at 1.33 nM.

Regarding `CNC(=O)c1nnc(NC(=O)C2CC2)cc1Nc1cccc2ccn(C)c(=O)c12` [Example 24, 6-(Cyclopropanecarboxamido)-N-methyl-4-((2-methyl-1-oxo-1,2-dihydroisoquinolin-8-yl)amino)pyridazine-3-carboxamide], the GI50 in data set [4] came out at 1390 nM. For the same compound, the concentration for half-maximal inhibition (IC50) in data set [6] was above 5000 nM.

Turning to `CNC(=O)c1nnc(NC(=O)C2CC2)cc1Nc1csc2ccn(C)c(=O)c12` [Example 27, 6-(Cyclopropanecarboxamido)-N-methyl-4-((5-methyl-4-oxo-4,5-dihydrothieno[3,2-c]pyridin-3-yl)amino)pyridazine-3-carboxamide], the 50% inhibitory concentration (IC50) in data set [1] is above 5000 nM; in data set [2], above 5000 nM; in data set [6] it was above 5000 nM; in data set [7], 0.48 nM. Also, the figures for the GI50 in data set [3] and in data set [4] were above 20000 nM and 50.9 nM, respectively.

As to `CNC(=O)c1cnc2nc1Nc1cc(cc(-c3ncn(C)n3)c1OC)COCc1cccc(c1)N2` [Example 33, 10-Methoxy-N-methyl-11-(1-methyl-1,2,4-triazol-3-yl)-15-oxa-2,4,8,23-tetrazatetracyclo[15.3.1.13,7.19,13]tricosa-1(21),3(23),4,6,9,11,13(22),17,19-nonaene-6-carboxamide], the IC50 in data set [1], in data set [2] and in data set [6] was above 5000 nM each time. The GI50 in data set [4] was 499 nM. Also, the microsomal CLint at 1 μM worked out at 14.5 µL/min/mg in data set [5] (setting [9]), 26.2 µL/min/mg in data set [5] (setting [11]) and 21.8 µL/min/mg in data set [5] (setting [13]). The figures for the half-life at 1 μM in data set [5] (setting [10]), in data set [5] (setting [12]) and in data set [5] (setting [14]) were 3.97 h, 2.2 h and 2.65 h, respectively.

Consider `CCN1CCc2scc(Nc3cc(NC(=O)C4CC4)ncc3C(=O)NC)c2C1=O` [Example 39, 6-(Cyclopropanecarboxamido)-4-((5-ethyl-4-oxo-4,5,6,7-tetrahydrothieno [3,2-c]pyridin-3-yl)amino)-N-methyl-nicotinamide], for which the IC50 in data set [1], in data set [2] and in data set [6] was above 5000 nM throughout. Also, in data set [4], the GI50 is 88.1 nM.

For `CNC(=O)c1nnc(NC(=O)C2CC2)cc1Nc1cn(C)c2ccn(C)c(=O)c12` [Example 49, 6-(Cyclopropanecarboxamido)-4-((1,5-dimethyl-4-oxo-4,5-dihydro-1H-pyrrolo[3,2-c]pyridin-3-yl)amino)-N-methylpyridazine-3-carboxamide], in data set [8], the concentration in solution (solubility at 2 h) was 6.3 µM (≈ 2.49 µg/mL). In data set [4], the GI50 is 111 nM. Besides, the microsomal CLint at 1 μM in data set [5] (setting [9]) was below 11.5 µL/min/mg; in data set [5] (setting [11]) it was 14.4 µL/min/mg; in data set [5] (setting [13]) it was 32.4 µL/min/mg. Moreover, the results for the half-life at 1 μM in data set [5] (setting [10]), in data set [5] (setting [12]) and in data set [5] (setting [14]) were above 2 h, 1.6 h and 0.713 h, respectively.

For `[2H]C([2H])([2H])NC(=O)c1cnc2cc1Nc1cc(cc(-c3ncn(CC)n3)c1OC)COCc1nc(ccc1F)N2` [Example 85, 11-(1-Ethyl-1H-1,2,4-triazol-3-yl)-18-fluoro-10-methoxy-N-(methyl-d3)-15-oxa-2,4,8,21-tetraazatetracyclo[15.3.1.1^{3,7}.1^{9,13}]tricosa-1(20),3,5,7(23),9,11,13(22),17(21),18-nonaene-6-carboxamide], the concentration in solution in data set [8] (solubility at 2 h) was 15.2 µM (≈ 7.74 µg/mL). The GI50 in data set [4] was found to be 142 nM.

The record behind these values is US20250115597A1, “TYK2 INHIBITORS AND COMPOSITIONS AND METHODS THEREOF” (LYNK PHARMACEUTICALS CO. LTD., priority 2021, published 2025).
